What was measured:
[1] = test system: GAL4DBD-ABI/VP16AD-PYL, inducible luciferase reporter in HEK293T cells; experiment: Inducible luciferase reporter assay, ABA-responsive system (orthogonality); assay type: cell-based, human; settings: treated with IAA or ABA or DMSO for 24 hours
Procedure: To ensure that IAA and ABA could be used to independently control two histone modification editing events, the orthogonality between these two systems was tested. HEK293T cells were co-transfected with either GAL4DBD-TIR1*/VP16AD-AID (responsive to IAA) or GAL4DBD-ABI/VP16AD-PYL (responsive to ABA), and an inducible luciferase reporter construct. This was followed by treating cells with either IAA or ABA (or DMSO as a control) for 24 hours. […] To test the reversibility of IAA-induced dimerization, in which it was critical to achieve precise temporal control, HEK293T cells were co-transfected with GAL4DBD-TIR1*, VP16AD-AID, and an inducible luciferase expression construct, and then treated cells with 50 μM IAA for 24 hours. Cells were then washed with fresh media without IAA to remove the inducer (or no washing as a control). They were then harvested for luciferase assays after washing.

[2] = test system: luciferase reporter gene (fos-Luc) in CHO cells; experiment: ABA-induced luciferase expression using integrated CRISPR/CIP (PYL-VP80 / dCas9-NLS-ABI, fos-Luc reporter, sgRNAs); assay type: cell-based; settings: CHO cells transfected for 24 hours; ABA 100 μM for 16 hours
From the text: In one exemplary embodiment, ABA-induced ABI-PYL dimerization recruited a transcriptional activator to a DNA sequence targeted by sgRNAs and dCas9, and turn on the expression of a reporter gene. Several DNA plasmids were constructed for this purpose, including: (i) a DNA plasmid (PYL-VP80-ires-dCas9-NLS-ABI) encoding the transcriptional activator VP80 fused to PYL (PYL-VP80) and dCas9 with a nuclear localization signal (NLS) fused to ABI (dCas9-NLS-ABI); (ii) a luciferase reporter gene (fos-Luc) that contains the fos minimal promoter to give minimal background expression; and (iii) several sgRNA expression constructs to target the upstream region (within 1.5 kb) of the luciferase gene. […] Also, specific combinations of multiple sgRNAs increased the induced expression level. In other applications, the fold induction can be improved by optimizing the targeting region of sgRNAs, the combination of different sgRNAs, and/or the framework of fusion proteins, which may lead to a better positioning of the recruited transcription machinery relative to the transcription start site. […] Since histone posttranslational modifications are generally present in an expanded region instead of a specific location (e.g., a transcription start site), the precise positioning may not be as critical for epigenome editing.

SMILES: CC1=CC(=O)CC(C)(C)[C@@]1(O)/C=C/C(C)=C\C(=O)O [ABA, abscisic acid]
- luciferase expression, ABA-responsive system [1]: Only the proper combination of inducer with corresponding binding proteins could induce luciferase expression
- luciferase expression [2]: luciferase expression was induced
